Measurements from US12359173B2, “Serum-free and xeno-free culture medium for expanding mesenchymal stem cells” (NUWACELL BIOTECHNOLOGIES CO., LTD., priority 2023, dated 2025).

Tested on: iMSCs
Experiment: iMSC expansion, seeded at 1000 cells/well, day 10 morphology and cell number
Format: cell-based
Procedure: Cryopreserved iMSCs (RC01005, Nuwacell Co., Ltd.) were seeded in 6-well plates at 1000 cells/well in M1 medium to thaw the cells. The medium was replaced 24 h later with 2 ml/well of the following medium: M1; or M2 (5% HPLT) further supplemented with or without one or more growth factors (F: FGF2 (10 ng/ml, Nuwacell Co., Ltd.); P: PDFG-BB (10 ng/ml, Cat. No.: 100-14B-100, Peprotech); T: TGFβ1 (1 ng/ml, Cat. No.: 100-21, Peprotech)) in the absence or presence of hydrocortisone (1 μM, Cat. No.: 4098, Tocris). […] The medium was changed with the same medium every three days. On day 10 of culture, the cells were digested by solase (RP01021, Nuwacell Co., Ltd.) for 3 min and collected, and then centrifugated, and with the supernatant removed, resuspended in the corresponding medium, and the number of iMSC cells was counted by cell viability analyzer (Vi-CELLTMXR, BECKMAN COULTER) (FIG. 5).

Row | Molecule | effect of addition on iMSC proliferation (Example 5, hydrocortisone 1 μM added to M2 (5% HPLT)) | effect of addition to M3 on iMSC growth (Example 13, 4 mg/L dialyzed HSA, 25 μg/ml heparin sodium, FIG. 13)
1 | C[C@]12CCC(=O)C=C1CC[C@@H]1[C@@H]2[C@@H](O)C[C@@]2(C)[C@H]1CC[C@]2(O)C(=O)CO [hydrocortisone] | could promote the iMSC proliferation | 
2 | heparin sodium |  | could further promote iMSC growth
